Source: patent US20180194762A1 (Pharmacyclics LLC, priority 2017, published 2018)
Where two headings read alike, the source gives them in different places.

Key:
Type in all cases: biochemical
TEC = target: T1, TEC (Homo sapiens, UniProt P42680); experiment: Inhibition of a panel of kinases (in vitro HotSpot kinase assay, 33P-ATP, 1 μM ATP); details: for IC50: HotSpot kinase assay, 1 μM ATP; for TEC/Btk: ratio of TEC IC50 to Btk IC50 (selectivity)
T1 sequence (P42680 1-631): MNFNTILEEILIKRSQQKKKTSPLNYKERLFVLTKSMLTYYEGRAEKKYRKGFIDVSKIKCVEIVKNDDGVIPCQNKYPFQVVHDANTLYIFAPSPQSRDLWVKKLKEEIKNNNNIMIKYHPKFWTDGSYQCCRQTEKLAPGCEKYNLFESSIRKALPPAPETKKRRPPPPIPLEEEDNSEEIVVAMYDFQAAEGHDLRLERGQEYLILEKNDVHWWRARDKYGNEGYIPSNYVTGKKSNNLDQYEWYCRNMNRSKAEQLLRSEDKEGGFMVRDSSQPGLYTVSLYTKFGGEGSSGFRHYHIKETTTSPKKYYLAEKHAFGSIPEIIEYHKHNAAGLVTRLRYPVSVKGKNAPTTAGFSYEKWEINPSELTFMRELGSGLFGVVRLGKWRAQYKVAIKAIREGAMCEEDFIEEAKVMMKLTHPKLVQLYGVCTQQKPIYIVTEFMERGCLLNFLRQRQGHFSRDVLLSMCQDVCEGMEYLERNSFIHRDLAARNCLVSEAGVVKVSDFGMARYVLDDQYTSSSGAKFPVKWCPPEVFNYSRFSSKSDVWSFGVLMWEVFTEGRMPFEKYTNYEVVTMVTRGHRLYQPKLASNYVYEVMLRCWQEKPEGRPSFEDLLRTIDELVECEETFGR
In short: (§1)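 At 1 μM ATP spiked with 33P-ATP, substrate phosphorylation by the purified enzymes gives the extent of inhibition.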

Btk = target: T2, Btk (Homo sapiens, UniProt Q06187); experiment: Btk in vitro inhibitory activity (one of Method A TR-FRET, Method B electrophoretic mobility shift, Method C radiometric filter binding)
T2 construct: purified from insect cells as a full-length construct containing a N-terminal 6X-His tag; His6 (N); made in house; host or cells: insect cells (Method C)
T2 sequence (Q06187 whole entry): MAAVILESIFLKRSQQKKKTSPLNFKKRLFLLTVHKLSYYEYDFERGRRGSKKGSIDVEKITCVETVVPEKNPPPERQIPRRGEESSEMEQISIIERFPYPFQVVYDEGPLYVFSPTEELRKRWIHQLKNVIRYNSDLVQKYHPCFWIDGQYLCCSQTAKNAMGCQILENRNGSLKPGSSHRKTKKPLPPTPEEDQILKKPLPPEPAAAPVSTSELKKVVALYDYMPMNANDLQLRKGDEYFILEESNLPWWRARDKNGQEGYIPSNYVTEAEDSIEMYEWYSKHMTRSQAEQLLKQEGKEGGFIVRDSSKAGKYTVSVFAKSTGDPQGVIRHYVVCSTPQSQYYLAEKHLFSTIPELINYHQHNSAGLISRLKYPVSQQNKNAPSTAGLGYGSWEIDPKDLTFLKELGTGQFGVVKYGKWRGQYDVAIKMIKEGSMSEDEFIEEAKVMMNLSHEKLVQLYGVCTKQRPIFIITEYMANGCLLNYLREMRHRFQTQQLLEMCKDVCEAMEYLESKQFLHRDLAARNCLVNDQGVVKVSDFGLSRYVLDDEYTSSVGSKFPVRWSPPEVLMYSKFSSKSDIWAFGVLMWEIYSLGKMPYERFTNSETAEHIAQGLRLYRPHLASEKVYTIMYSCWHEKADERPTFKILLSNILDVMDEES
In short: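 Three alternative formats were used. A radiometric filter-binding read used 8 nM full-length His-BTK with 0.2 mg/mL poly(Glu-Tyr) 4:1 (C); microfluidic separation of 1 μM FAM-peptide by 1 nM BTK gave IC50 from 12-point curves (B); TR-FRET at Km ATP, 0.5 nM Btk, gave Ki(app)-derived IC50 (A).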

panel of kinases = target: T3, panel of kinases (Homo sapiens, UniProt P51813); experiment: Inhibition of a panel of kinases (in vitro HotSpot kinase assay, 33P-ATP, 1 μM ATP), other kinases; details: BMX wild-type, read-out: BMX-WT IC50
T3 sequence (P51813 1-675): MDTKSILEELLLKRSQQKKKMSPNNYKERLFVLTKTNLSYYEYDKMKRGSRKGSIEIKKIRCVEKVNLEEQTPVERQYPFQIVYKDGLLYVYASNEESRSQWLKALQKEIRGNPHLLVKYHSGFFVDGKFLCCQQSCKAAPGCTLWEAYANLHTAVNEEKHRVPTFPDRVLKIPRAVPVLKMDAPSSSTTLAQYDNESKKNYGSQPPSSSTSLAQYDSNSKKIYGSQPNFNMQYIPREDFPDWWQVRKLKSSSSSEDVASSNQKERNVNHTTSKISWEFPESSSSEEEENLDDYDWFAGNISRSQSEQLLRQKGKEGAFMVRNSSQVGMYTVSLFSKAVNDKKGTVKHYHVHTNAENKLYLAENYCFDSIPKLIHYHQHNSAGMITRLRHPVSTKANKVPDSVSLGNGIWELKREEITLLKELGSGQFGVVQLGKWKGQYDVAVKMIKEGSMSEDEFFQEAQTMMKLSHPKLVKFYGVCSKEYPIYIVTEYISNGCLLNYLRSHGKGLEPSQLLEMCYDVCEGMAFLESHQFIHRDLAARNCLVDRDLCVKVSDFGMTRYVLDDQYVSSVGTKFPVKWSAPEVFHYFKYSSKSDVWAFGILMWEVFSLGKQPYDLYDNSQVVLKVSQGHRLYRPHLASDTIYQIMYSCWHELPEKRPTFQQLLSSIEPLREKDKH
In short: as §1

[1] = wild-type Btk, read-out: Btk-WT IC50
[2] = method is one of A, B or C, not stated which, read-out: IC50 values against Btk

Compound	IC50 (TEC) [nM]	IC50 (Btk; [1]) [nM]	IC50 (panel of kinases) [nM]	TEC/Btk (TEC)	IC50 (Btk; [2]) [nM]
Cn1c(C(=O)NCc2ccc(-c3ccnc4[nH]nc(N[C@@H]5CCNC5)c34)cc2F)cc2c1CC(C)(C)C2 [Example 157, N-{[2-fluoro-4-(3-{[(3R)-pyrrolidin-3-yl]amino}-1H-pyrazolo[3,4-b]pyridin-4-yl)phenyl]methyl}-1,5,5-trimethyl-1H,4H,5H,6H-cyclopenta[b]pyrrole-2-carboxamide]	> 10000	> 10000	> 10000		
C=CC(=O)N1CC[C@@H](Nc2n[nH]c3nccc(-c4ccc(CNC(=O)c5cc6c(n5C)CC(C)(C)C6)c(F)c4)c23)C1 [Example 158, N-{[2-fluoro-4-(3-{[(3R)-1-(prop-2-enoyl)pyrrolidin-3-yl]amino}-1H-pyrazolo[3,4-b]pyridin-4-yl)phenyl]methyl}-1,5,5-trimethyl-1H,4H,5H,6H-cyclopenta[b]pyrrole-2-carboxamide]	394	7.71	170	51	< 10
CC(C)(C)c1noc(C(=O)NCc2ccc(-c3ccnc4[nH]nc(N5CC[C@H](N)C5)c34)cc2F)n1 [Example 159, N-[(4-{3-[(3S)-3-aminopyrrolidin-1-yl]-1H-pyrazolo[3,4-b]pyridin-4-yl}-2-fluorophenyl)methyl]-3-tert-butyl-1,2,4-oxadiazole-5-carboxamide]	591	1.45	1820	408	< 10
C=CC(=O)N1CC[C@@H](Nc2n[nH]c3nccc(-c4cccc(NC(=O)c5noc(C(C)(C)C)n5)c4CO)c23)C1 [Example 160, 5-tert-butyl-N-[2-(hydroxymethyl)-3-(3-{[(3R)-1-(prop-2-enoyl)pyrrolidin-3-yl]amino}-1H-pyrazolo[3,4-b]pyridin-4-yl)phenyl]-1,2,4-oxadiazole-3-carboxamide]	922	37.3	444	25	
C=CC(=O)N1CC[C@@H](Nc2n[nH]c3nccc(-c4cccc(NC(=O)c5ccc(C(C)(C)C)cc5)c4CO)c23)C1 [Example 161, 4-tert-butyl-N-[2-(hydroxymethyl)-3-(3-{[(3R)-1-(prop-2-enoyl)pyrrolidin-3-yl]amino}-1H-pyrazolo[3,4-b]pyridin-4-yl)phenyl]benzamide]	318	0.57	275	558	< 10
CC(C)(C)c1noc(C(=O)NCc2ccc(-c3ccnc4[nH]nc(N[C@H]5CCNC5)c34)cc2F)n1 [Example 162, 3-tert-butyl-N-{[2-fluoro-4-(3-{[(3S)-pyrrolidin-3-yl]amino}-1H-pyraozlo[3,4-b]pyridin-4-yl)phenyl]methyl}-1,2,4-oxadiazole-5-carboxamide]	6260	4.5	6050	1391	< 10
CC(C)N1CC[C@H](Nc2n[nH]c3nccc(-c4ccc(CNC(=O)c5nc(C(C)(C)C)no5)c(F)c4)c23)C1 [Example 163, 3-tert-butyl-N-{[2-fluoro-4-(3-{[(3S)-1-(propan-2-yl)pyrrolidin-3-yl]amino}-1H-pyrazolo[3,4-b]pyridin-4-yl)phenyl]methyl}-1,2,4-oxadiazole-5-carboxamide]	9450	4.78	> 10000	1977	< 10
CC(=O)N1CC[C@H](Nc2n[nH]c3nccc(-c4ccc(CNC(=O)c5nc(C(C)(C)C)no5)c(F)c4)c23)C1 [Example 164, N-{[4-(3-{[(3S)-1-acetylpyrrolidin-3-yl]amino}-1H-pyrazolo[3,4-b]pyridin-4-yl)-2-fluorophenyl]methyl}-3-tert-butyl-1,2,4-oxadiazole-5-carboxamide]	8070	11.3	8340	714	
CC(C)(C)c1nc(C(=O)Nc2cccc(-c3ccnc4[nH]nc(N[C@@H]5CCNC5)c34)c2CO)no1 [Example 165, t-tert-butyl-N-[2-(hydroxymethyl)-3-(3-{[(3R)-pyrrolidin-3-yl]amino}-1H-pyrazolo[3,4-b]pyridin-4-yl)phenyl]-1,2,4-oxadiazole-3-carboxamide]	> 10000	> 10000	> 10000	>100	
CN1CC[C@H](Nc2n[nH]c3nccc(-c4ccc(CNC(=O)c5nc(C(C)(C)C)no5)c(F)c4)c23)C1 [Example 166, 3-tert-butyl-N-{[2-fluoro-4-(3-{[(3S)-1-methylpyrrolidin-3-yl]amino}-1H-pyrazolo[3,4-b]pyridin-4-yl)phenyl]methyl}-1,2,4-oxadiazole-5-carboxamide]	> 10000	3.12	> 10000	>100	< 10
CC(C)(C)c1noc(C(=O)NCc2ccc(-c3ccnc4[nH]nc(N[C@H]5CCCNC5)c34)cc2F)n1 [Example 167, 3-tert-butyl-N-{[2-fluoro-4-(3-{[(3S)-piperidin-3-yl]amino}-1H-pyrazolo[3,4-b]pyridin-4-yl)phenyl]methyl}-1,2,4-oxadiazole-5-carboxamide]	> 10000	10.7	> 10000	>100	
CC(=O)N1CCC[C@H](Nc2n[nH]c3nccc(-c4ccc(CNC(=O)c5nc(C(C)(C)C)no5)c(F)c4)c23)C1 [Example 168, N-{[4-(3-{[(3S)-1-acetylpiperidin-3-yl]amino}-1H-pyrazolo[3,4-b]pyridin-4-yl)-2-fluorophenyl]methyl}-3-tert-butyl-1,2,4-oxadiazole-5-carboxamide]	> 10000	40.3	> 10000	>100	
C=CC(=O)N1CCC[C@H](Nc2n[nH]c3nccc(-c4ccc(CNC(=O)c5nc(C(C)(C)C)no5)c(F)c4)c23)C1 [Example 169, 3-tert-butyl-N-{[2-fluoro-4-(3-{[(3S)-1-(prop-2-enoyl)piperidin-3-yl]amino}-1H-pyrazolo[3,4-b]pyridin-4-yl)phenyl]methyl}-1,2,4-oxadiazole-5-carboxamide]	1750	3.72	1820	470	< 10
CCc1cc(C(=O)NCc2ccc(-c3ccnc4[nH]nc(N[C@@H]5CCCN[C@@H]5C)c34)cc2F)no1 [Example 170, 5-ethyl-N-{[2-fluoro-4-(3-{[(2R,3R)-2-methylpiperidin-3-yl]amino}-1H-pyrazolo[3,4-b]pyridin-4-yl)phenyl]methyl}-1,2-oxazole-3-carboxamide]	> 10000	> 10000	> 10000		
CCc1cc(C(=O)NCc2ccc(-c3ccnc4[nH]nc(N[C@@H]5CCCN(C(=O)N(C)C)[C@@H]5C)c34)cc2F)no1 [Example 171, (2R,3R)-3-{[4-(4-{[(5-ethyl-1,2-oxazol-3-yl)formamido]methyl}-3-fluorophenyl)-1H-pyrazolo[3,4-b]pyridin-3-yl]amino}-N,N,2-trimethylpiperidine-1-carboxamide]	> 10000	559	7790	>100	
CC(C)c1cc(C(=O)NCc2ccc(-c3ccnc4[nH]nc(N[C@@H]5CCCN[C@@H]5C)c34)cc2F)no1 [Example 172, N-{[2-fluoro-4-(3-{[(2R,3R)-2-methylpiperidin-3-yl]amino}-1H-pyrazolo[3,4-b]pyridin-4-yl)phenyl]methyl}-5-(propan-2-yl)-1,2-oxazole-3-carboxamide]	> 10000	436	> 10000	>100	
